# Experimental data published in US12370167B2, “Blood-brain barrier permeability regulator and use thereof” (ZHEJIANG UNIVERSITY, priority 2019, dated 2025).
# Assays:
# U87 MG glioma cells = experiment: Cytotoxicity on U87 MG glioma cells, tetrazolium blue colorimetric method; assay type: cell-based; conditions: paclitaxel 0.5 μg/mL, siRNA 100 nM, 48 hours
# Experimental: FIG. 1: In vitro cell inhibition rate against U87 MG glioma cells of the Angiopep-2-modified glycolipid nano-delivery system. 200 μL suspensions of well-grown U87 MG glioma cells were inoculated into a 96-well plate at a density of 5×10^3/well. After adherent growth of the cells, an Angiopep-2-modified glycolipid nano-delivery system was added, with paclitaxel at a concentration of 0.5 μg/mL and the siRNA at a concentration of 100 nM. The untreated cells were used as a blank control. The cell growth inhibition rate was measure with a tetrazolium blue colorimetric method (n=3).
# U87 MG glioma cells were used as the model cell to assess the growth inhibitory effect of the Angiopep-2-modified glycolipid nano-delivery system on tumor cells with a tetrazolium blue colorimetric method. The Angiopep-2-modified glycolipid nano-delivery system was obtained according to the procedures as described in the above sections of 1 and 2. 200 μL suspensions of well-grown U87 MG cells were inoculated into a 96-well plate at a density of 5×10^3/well, and were incubated at 37° C. and 5% CO2 until the cells adhere. The Angiopep-2-modified glycolipid nano-delivery system was added, with paclitaxel at a concentration of […] and the siRNA at a concentration of 100 nM. The untreated cells were used as a blank control. […] Absorbance at 570 nm was measured with a microplate reader. […]
# [1] = test system: VEGF mRNA in U87 MG cells; experiment: Down-regulation of tumor cell VEGF mRNA expression, qt-PCR; assay type: cell-based; conditions: paclitaxel 0.5 μg/mL, siRNA 100 nM, 48 hours, ΔΔCt method, n=3
# Experimental: FIG. 2: In vitro down-regulation of expression of U87 MG cell VEGF mRNA by the Angiopep-2-modified glycolipid nano-delivery system. 2 mL suspensions of well-grown U87 MG glioma cells were inoculated into a 6-well plate at a density of 4×10^5/well. After adherent growth of the cells, an Angiopep-2-modified glycolipid nano-delivery system was added, with paclitaxel at a concentration of 0.5 μg/mL and the siRNA at a concentration of 100 nM. The incubation was carried out for 48 hours. An untreated group was used as the blank control. The RNA in the cells was extracted with TRIzol. The relative expression level of tumor cell VEGF mRNA was measure with qt-PCR and calculated with a ΔΔCt method (n=3).
# The Angiopep-2-modified glycolipid nano-delivery system was obtained according to the procedures as described in the above sections of 1 and 2. 2.0 mL suspensions of well-grown U87 MG cells were inoculated into a 6-well plate at a density of 4×10^5/well, and were incubated at 37° C. and 5% CO2 until the cells adhere. The Angiopep-2-modified glycolipid nano-delivery system was added, with paclitaxel at a concentration of 0.5 μg/mL and the siRNA at a concentration of 100 nM. The incubation was carried out for 48 hours. The untreated cells were used as a blank control. Each of the group was repeated 3 times. The tumor cell VEGF expression level was measured with qt-PCR.
Compound,"inhibition at 0.5 µg/mL (U87 MG glioma cells; Homo sapiens, U-87 MG, n=3, read-out: cell inhibition rate) [%]",expression level of VEGF mRNA (relative) [1] [%],cell inhibition rate (U87 MG glioma cells; n=3) [%]
CC(=O)O[C@H]1C(=O)[C@@]2(C)[C@H]([C@H](OC(=O)c3ccccc3)[C@]3(O)C[C@H](OC(=O)[C@H](O)[C@@H](NC(=O)c4ccccc4)c4ccccc4)C(C)=C1C3(C)C)[C@]1(OC(C)=O)CO[C@@H]1C[C@@H]2O [paclitaxel],18.7 ± 5.4,78.5,
"siRNA: siRNA, sense strand 5′-GUCUAUCAGCGCAGCUACUTT-3′ (SEQ ID NO: 1), antisense strand 5′-AGUAGCUGCGCUGAUAGACTT-3′ (SEQ ID NO: 2) (sense GUCUAUCAGCGCAGCUACUNN; antisense AGUAGCUGCGCUGAUAGACNN; listed as RNA, chemistry not given here)",,92.9,5.5±0.5
